Measured values reported in paper PMC6545112 (Journal of medicinal chemistry, 2018).
Entries after “also recorded” stand apart in the source; their conditions may differ. Read-outs that look alike come from different tables or passages of the source.

Assays:
RS4;11 cell line = test: cell growth inhibition, WST-8 assay, RS4; type: cell-based, human; conditions: for IC50: read-out: IC50 (nM) in inhibition of cell growth in the RS4;11 cell line, 4 days, WST-8 assay
[1] = biological target: MDM2 and p53 proteins in RS4;11 cells (Homo sapiens, UniProt Q00987); test: western blotting analysis of MDM2 and p53 proteins in RS4; type: cell-based; conditions: 2 h treatment; for effect on MDM2 and p53 protein levels (western blotting): RS4;11 cells
Chain of MDM2 and p53 proteins in RS4;11 cells (Q00987 whole entry): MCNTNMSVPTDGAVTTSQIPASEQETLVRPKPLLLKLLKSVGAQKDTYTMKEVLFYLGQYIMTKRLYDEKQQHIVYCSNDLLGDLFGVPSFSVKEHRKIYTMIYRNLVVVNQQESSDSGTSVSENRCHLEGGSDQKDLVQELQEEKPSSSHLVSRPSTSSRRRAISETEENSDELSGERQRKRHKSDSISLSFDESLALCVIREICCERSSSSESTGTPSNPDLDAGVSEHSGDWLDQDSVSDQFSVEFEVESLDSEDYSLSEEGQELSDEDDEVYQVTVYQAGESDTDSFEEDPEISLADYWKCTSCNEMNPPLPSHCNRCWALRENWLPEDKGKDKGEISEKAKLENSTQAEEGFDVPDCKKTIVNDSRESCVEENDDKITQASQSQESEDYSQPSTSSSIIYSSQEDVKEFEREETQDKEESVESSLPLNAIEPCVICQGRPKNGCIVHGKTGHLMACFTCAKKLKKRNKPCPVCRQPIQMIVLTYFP

Compound | effect on MDM2 and p53 protein levels (western blotting) [1] | also measured
O=C1CCC(N2C(=O)c3cccc(CCCCCNC(=O)c4ccc(NC(=O)[C@@H]5NC6(CCCCC6)[C@@]6(C(=O)Nc7cc(Cl)ccc76)[C@H]5c5cccc(Cl)c5F)cc4)c3C2=O)C(=O)N1 (some centres unmarked) [Compound 11, (3’R,4’S,5’R)-6”-Chloro-4’-(3-Chloro-2-fluorophenyl)-N-(4-((5-(2-(2,6-dioxopiperidin-3-yl)-1,3-dioxoisoindolin-4-yl)pentyl)carbamoyl)phenyl)-2”-oxodispiro[cyclohexane-1,2’-pyrrolidine-3’,3”-indoline]-5’-carboxamide] |  | times less potent than 1 in inhibition of cell growth (RS4;11 cell line; RS4;11): 3 times
O=C1CCC(N2C(=O)c3cccc(NCCCCCCNC(=O)c4ccc(NC(=O)[C@@H]5NC6(CCCCC6)[C@@]6(C(=O)Nc7cc(Cl)ccc76)[C@H]5c5cccc(Cl)c5F)cc4)c3C2=O)C(=O)N1 (some centres unmarked) [Compound 7, (3’R,4’S,5’R)-6”-Chloro-4’-(3-Chloro-2-fluorophenyl)-N-(4-((6-((2-(2,6-dioxopiperidin-3-yl)-1,3-dioxoisoindolin-4-yl)amino)hexyl)carbamoyl)phenyl)-2”-oxodispiro[cyclohexane-1,2’-pyrrolidine-3’,3”-indoline]-5’-carboxamide] | induce degradation of MDM2 and accumulation of p53 | 
CNC(=O)c1ccc(NC(=O)[C@@H]2NC3(CCCCC3)[C@@]3(C(=O)Nc4cc(Cl)ccc43)[C@H]2c2cccc(Cl)c2F)cc1 [MI-1242] | inducing accumulation of both MDM2 and p53 | 
O=C1CCC(N2C(=O)c3cccc(NCCNC(=O)c4ccc(NC(=O)[C@@H]5NC6(CCCCC6)[C@@]6(C(=O)Nc7cc(Cl)ccc76)[C@H]5c5cccc(Cl)c5F)cc4)c3C2=O)C(=O)N1 (some centres unmarked) [Compound 4, (3’R,4’S,5’R)-6”-Chloro-4’-(3-Chloro-2-fluorophenyl)-N-(4-((2-((2-(2,6-dioxopiperidin-3-yl)-1,3-dioxoisoindolin-4-yl)amino)ethyl)carbamoyl)phenyl)-2”-oxodispiro[cyclohexane-1,2’-pyrrolidine-3’,3”-indoline]-5’-carboxamide] | induce degradation of MDM2 and accumulation of p53 | 
O=C1CCC(N2C(=O)c3cccc(NCCOCCOCCOCCNC(=O)c4ccc(NC(=O)[C@@H]5NC6(CCCCC6)[C@@]6(C(=O)Nc7cc(Cl)ccc76)[C@H]5c5cccc(Cl)c5F)cc4)c3C2=O)C(=O)N1 (some centres unmarked) [Compound 10, (3’R,4’S,5’R)-6”-Chloro-4’-(3-Chloro-2-fluorophenyl)-N-(4-((2-(2-(2-(2-((2-(2,6-dioxopiperidin-3-yl)-1,3-dioxoisoindolin-4-yl)amino)ethoxy)ethoxy)ethoxy)-ethyl)carbamoyl)phenyl)-2”-oxodispiro[cyclohexane-1,2’-pyrrolidine-3’,3”-indoline]-5’-carboxamide] | effectively induce degradation of MDM2 and accumulation of p53 | IC50 (RS4;11 cell line; Homo sapiens, RS4-11, 96 h): 4.5 nM
O=C1CCC(N2C(=O)c3cccc(NCCOCCNC(=O)c4ccc(NC(=O)[C@@H]5NC6(CCCCC6)[C@@]6(C(=O)Nc7cc(Cl)ccc76)[C@H]5c5cccc(Cl)c5F)cc4)c3C2=O)C(=O)N1 (some centres unmarked) [Compound 9, (3’R,4’S,5’R)-6”-Chloro-4’-(3-Chloro-2-fluorophenyl)-N-(4-((2-(2-((2-(2,6-dioxopiperidin-3-yl)-1,3-dioxoisoindolin-4-yl)amino)ethoxy)ethyl)carbamoyl)phenyl)-2”-oxodispiro[cyclohexane-1,2’-pyrrolidine-3’,3”-indoline]-5’-carboxamide] | effectively induce degradation of MDM2 and accumulation of p53 | 
CN1C(=O)CCC(N2Cc3c(C#CCCCNC(=O)c4ccc(NC(=O)[C@@H]5NC6(CCCCC6)[C@@]6(C(=O)Nc7cc(Cl)ccc76)[C@H]5c5cccc(Cl)c5F)cc4)cccc3C2=O)C1=O (some centres unmarked) [Compound 22, (3’R,4’S,5’R)-6”-Chloro-4’-(3-chloro-2-fluorophenyl)-N-(4-((5-(2-(1-methyl-2,6-dioxopiperidin-3-yl)-1-oxoisoindolin-4-yl)pent-4-yn-1-yl)carbamoyl)phenyl)-2”-oxodispiro[cyclohexane-1,2’-pyrrolidine-3’,3”-indoline]-5’-carboxamide] | completely inactive in inducing MDM2 degradation | times less potent than MD-224 in inhibition of cell growth (RS4;11 cell line; RS4;11): > 100 times
O=C1CCC(N2Cc3c(C#CCCCNC(=O)c4ccc(NC(=O)[C@H]5NC6(CCCCC6)[C@]6(C(=O)Nc7cc(Cl)ccc76)[C@@H]5c5cccc(Cl)c5F)cc4)cccc3C2=O)C(=O)N1 (some centres unmarked) [Compound 21, (3’S,4’R,5’S)-6”-Chloro-4’-(3-chloro-2-fluorophenyl)-N-(4-((5-(2-(2,6-dioxopiperidin-3-yl)-1-oxoisoindolin-4-yl)pent-4-yn-1-yl)carbamoyl)phenyl)-2”-oxodispiro[cyclohexane-1,2’-pyrrolidine-3’,3”-indoline]-5’-carboxamide] | fails to induce any MDM2 degradation | activity in inhibition of cell growth (in words) (RS4;11 cell line; RS4;11): minimal activity
O=C1CCC(N2C(=O)c3cccc(NCCOCCOCCNC(=O)c4ccc(NC(=O)[C@@H]5NC6(CCCCC6)[C@@]6(C(=O)Nc7cc(Cl)ccc76)[C@H]5c5cccc(Cl)c5F)cc4)c3C2=O)C(=O)N1 (some centres unmarked) [Compound 2, (3’R,4’S,5’R)-6”-Chloro-4’-(3-Chloro-2-fluorophenyl)-N-(4-((2-(2-(2-((2-(2,6-dioxopiperidin-3-yl)-1,3-dioxoisoindolin-4-yl)amino)ethoxy)ethoxy)-ethyl)carbamoyl)phenyl)-2”-oxodispiro[cyclohexane-1,2’-pyrrolidine-3’,3”-indoline]-5’-carboxamide] | effectively reduce the level of MDM2 protein; also recorded: effectively induce degradation of MDM2 and accumulation of p53 | times more potent than MI-1061 and MI-1242 in inhibition of cell growth (RS4;11 cell line; RS4;11): about 10 times
(3’R,4’S,5’R)-6”-Chloro-4’-(3-chloro-2-fluorophenyl)-N-(4-((4-((2-(2,6-dioxopiperidin-3-yl)-1-oxoisoindolin-4-yl)amino)butyl)carbamoyl)phenyl)-2”-oxodispiro[cyclohexane-1,2’-pyrrolidine-3’,3”-indoline]-5’-carboxamide [Compound 12] |  | times more potent than 1 in inhibition of cell growth (RS4;11 cell line; RS4;11): twice as potent as 1; IC50 (RS4;11 cell line): 5 ± 5 nM
(3’R,4’S,5’R)-6”-Chloro-4’-(3-Chloro-2-fluorophenyl)-N-(4-((5-(2-(2,6-dioxopiperidin-3-yl)-1-oxoisoindolin-5-yl)pent-4-yn-1-yl)carbamoyl)phenyl)-2”-oxodispiro[cyclohexane-1,2’-pyrrolidine-3’,3”-indoline]-5’-carboxamide [Compound 16] | effectively induce degradation of MDM2 and accumulation of p53 | times less potent than MD-224 in inhibition of cell growth (RS4;11 cell line; RS4;11): 3 times; IC50 (RS4;11 cell line): 5 ± 2 nM
O=C1CCC(N2C(=O)c3cccc(NCCCCNC(=O)c4ccc(NC(=O)[C@@H]5NC6(CCCCC6)[C@@]6(C(=O)Nc7cc(Cl)ccc76)[C@H]5c5cccc(Cl)c5F)cc4)c3C2=O)C(=O)N1 (some centres unmarked) [Compound 1, (3’R,4’S,5’R)-6”-Chloro-4’-(3-Chloro-2-fluorophenyl)-N-(4-((4-((2-(2,6-dioxopiperidin-3-yl)-1,3-dioxoisoindolin-4-yl)amino)butyl)carbamoyl)phenyl)-2”-oxodispiro[cyclohexane-1,2’-pyrrolidine-3’,3”-indoline]-5’-carboxamide] | effectively reduce the level of MDM2 protein | times more potent than MI-1061 and MI-1242 in inhibition of cell growth (RS4;11 cell line; RS4;11): about 10 times; concentration that reduces/depletes MDM2 protein ([1]; RS4;11 / leukemia cells): 3 nM
O=C1CCC(N2C(=O)c3cccc(NCCCNC(=O)c4ccc(NC(=O)[C@@H]5NC6(CCCCC6)[C@@]6(C(=O)Nc7cc(Cl)ccc76)[C@H]5c5cccc(Cl)c5F)cc4)c3C2=O)C(=O)N1 (some centres unmarked) [Compound 5, (3’R,4’S,5’R)-6”-Chloro-4’-(3-Chloro-2-fluorophenyl)-N-(4-((3-((2-(2,6-dioxopiperidin-3-yl)-1,3-dioxoisoindolin-4-yl)amino)propyl)carbamoyl)phenyl)-2”-oxodispiro[cyclohexane-1,2’-pyrrolidine-3’,3”-indoline]-5’-carboxamide] | induce degradation of MDM2 and accumulation of p53 | 
(3’R,4’S,5’R)-6”-Chloro-4’-(3-chloro-2-fluorophenyl)-N-(4-((2-(2,6-dioxopiperidin-3-yl)-1-oxoisoindolin-4-yl)carbamoyl)phenyl)-2”-oxodispiro[cyclohexane-1,2’-pyrrolidine-3’,3”-indoline]-5’-carboxamide [Compound 3] | fails to induce MDM2 degradation | IC50 (RS4;11 cell line): 68.4 ± 36 nM
O=C1CCC(N2Cc3c(C#CCCNC(=O)c4ccc(NC(=O)[C@@H]5NC6(CCCCC6)[C@@]6(C(=O)Nc7cc(Cl)ccc76)[C@H]5c5cccc(Cl)c5F)cc4)cccc3C2=O)C(=O)N1 (some centres unmarked) [Compound 15, (3’R,4’S,5’R)-6”-Chloro-4’-(3-chloro-2-fluorophenyl)-N-(4-((4-(2-(2,6-dioxopiperidin-3-yl)-1-oxoisoindolin-4-yl)but-3-yn-1-yl)carbamoyl)phenyl)-2”-oxodispiro[cyclohexane-1,2’-pyrrolidine-3’,3”-indoline]-5’-carboxamide] |  | times less potent than MD-224 in inhibition of cell growth (RS4;11 cell line; RS4;11): 2 times
O=C1CCC(N2C(=O)c3cccc(NCCCCCNC(=O)c4ccc(NC(=O)[C@@H]5NC6(CCCCC6)[C@@]6(C(=O)Nc7cc(Cl)ccc76)[C@H]5c5cccc(Cl)c5F)cc4)c3C2=O)C(=O)N1 (some centres unmarked) [Compound 6, (3’R,4’S,5’R)-6”-Chloro-4’-(3-Chloro-2-fluorophenyl)-N-(4-((5-((2-(2,6-dioxopiperidin-3-yl)-1,3-dioxoisoindolin-4-yl)amino)pentyl)carbamoyl)phenyl)-2”-oxodispiro[cyclohexane-1,2’-pyrrolidine-3’,3”-indoline]-5’-carboxamide] | induce degradation of MDM2 and accumulation of p53 | 
